Measured values from patent publication US6908906B2, “Crystalline forms of pyrimidine nucleoside derivative” (Sankyo Company, Limited, priority 2001, dated 2005).

Experiment: Stability test: storage in stoppered vessels at 60° C. under a nitrogen atmosphere, content by HPLC
Assay type: physicochemical
Details: for Stability (Residual rate): based on initial content (100%)
Protocol: In the stability test, crystals B, C and D of the present invention prepared in Examples 1, 2 and 4, respectively and the amorphous powder (Amorphous A) of compound of general formula (I) described in Example 1 (1d) of the Japanese Patent No. 2569251 were used as reference. These compounds were placed in stoppered vessels separately and stored at 60° C. under a nitrogen atmosphere for 17 days, and the content of these compounds was measured on 5, 10 and 17 days after the initiation of the storage.
The content of these compounds was determined quantitatively with high performance liquid chromatography (HPLC), and the rate of the remaining compounds (%) was calculated by the content of Compound (I) determined at each sampling point based on the initial content (100%) determined immediately before the storage.

[1] = 5 days after the initiation of storage
[2] = 10 days after the initiation of storage
[3] = 17 days after the initiation of storage

Q: Which “stability (in words)” value does the source give for `CCCCCCCCCCCCCCCC(=O)Nc1ccn([C@@H]2O[C@H](CO)[C@@H](O)[C@@H]2C#N)c(=O)n1` [Amorphous A, 2′-cyano-2′-deoxy-N^4-palmitoyl-1-β-D-arabinofuranosylcytosine, reference compound] here?
A: extremely low

Q: And the “Stability (Residual rate)” value [1]?
A: 92.7%

Q: And the “Stability (Residual rate)” value [2]?
A: 78.6%

Q: What about the “Stability (Residual rate)” value [3] of the same compound?
A: 62.5%

Q: What about the “Stability (Residual rate)” value (17 days after the initiation of storage, listed as amorphous A) of the same compound?
A: 62.5%

Q: For `CCCCCCCCCCCCCCCC(=O)Nc1ccn([C@@H]2O[C@H](CO)[C@@H](O)[C@@H]2C#N)c(=O)n1` [Crystal B, 2′-cyano-2′-deoxy-N^4-palmitoyl-1-β-D-arabinofuranosylcytosine], which “Stability (Residual rate)” value [1] is on record?
A: 101.0%

Q: And the “Stability (Residual rate)” value [2]?
A: 100.3%

Q: And the “Stability (Residual rate)” value [3]?
A: 100.4%

Q: What about the “Stability (Residual rate)” value (17 days after the initiation of storage, listed as crystal B) of the same compound?
A: 100%

Q: With `CCCCCCCCCCCCCCCC(=O)Nc1ccn([C@@H]2O[C@H](CO)[C@@H](O)[C@@H]2C#N)c(=O)n1` [Crystal C, 2′-cyano-2′-deoxy-N^4-palmitoyl-1-β-D-arabinofuranosylcytosine] as the compound, how does the “Stability (Residual rate)” value [1] read?
A: 101.0%

Q: And the “Stability (Residual rate)” value [2]?
A: 100.4%

Q: What about the “Stability (Residual rate)” value [3] of the same compound?
A: 100.1%

Q: What about the “Stability (Residual rate)” value (17 days after the initiation of storage, listed as crystal C) of the same compound?
A: 100%

Q: With `CCCCCCCCCCCCCCCC(=O)Nc1ccn([C@@H]2O[C@H](CO)[C@@H](O)[C@@H]2C#N)c(=O)n1` [Crystal D, 2′-cyano-2′-deoxy-N^4-palmitoyl-1-β-D-arabinofuranosylcytosine] as the compound, how does the “Stability (Residual rate)” value [1] read?
A: 99.9%

Q: What about the “Stability (Residual rate)” value [2] of the same compound?
A: 98.3%

Q: And the “Stability (Residual rate)” value [3]?
A: 98.4%

Q: What about the “Stability (Residual rate)” value (17 days after the initiation of storage, listed as crystal D) of the same compound?
A: 98.4%
